Assay results reported in patent EP2608671B1, “COMPOUNDS FOR TREATMENT OF CANCER” (Gtx, Inc., priority 2010, dated 2012).
Where two headings read alike, the source gives them in different places.

Experiments:
NCI/ADR-RES = assay: SRB growth inhibition, P-gp over-expressing MDR line; type: cell-based, human; details: for Resistance factor: NCI/ADR-RES vs OVCAR-8, 5760 min
[1] = system: prostate cancer cell lines (LNCaP, DU 145, PC-3, PPC-1); assay: SRB cytotoxicity, prostate cancer cell panel (text summaries); type: cell-based; details: Homo sapiens, read-out: IC50 against prostate cancer cells
Excerpt: (§1) The only compounds which belong to the invention are the ones falling under the scope of formula (XI).

B16-F1 = assay: SRB cell growth inhibition (cytotoxicity) assay; type: cell-based, mouse
Excerpt: as §1

A375 = assay: SRB cell growth inhibition (cytotoxicity) assay; type: cell-based, human
PC-3 = assay: cells
Excerpt: as §1
Cells were stained with SRB solution.
Cells. […] Cells between the third and fifth passages were used for experiments.
Cell growth inhibition studies. […] Cells were stained with sulphorhodamine B (SRB) solution.

DU 145 [2] = assay: cells; details: Homo sapiens, DU-145, 96 h, read-out: IC50 ± SEM (nM), DU 145
LNCaP [3] = assay: cells; details: Homo sapiens, 96 h, read-out: IC50 ± SEM (nM), LNCaP
PPC-1 [4] = assay: cells; details: Homo sapiens, PPC-1, 96 h, read-out: IC50 ± SEM (nM), PPC-1
WM-164 = assay: SRB cell growth inhibition (cytotoxicity) assay; type: cell-based, human; details: Homo sapiens, WM164; SRB assay, 96 h; Table 2; read-out: IC50 ± SEM (nM), WM-164
OVCAR-8 = assay: SRB growth inhibition, MDR model parent line; type: cell-based, human; details: Homo sapiens, OVCAR-8; Table 5A; read-out: IC50 (nM), OVCAR-8
[5] = system: melanoma cell lines (A375, WM-164, B16-F1) and prostate cancer cell lines (LNCaP, DU 145, PC-3, PPC-1); assay: SRB cytotoxicity, melanoma and prostate cell panel (averages); type: cell-based; details: Prostate cell; summary of Tables 2, 3, 21; read-out: IC50 range over tested melanoma and prostate cell lines
Excerpt: as §1

Bovine brain tubulin = assay: In vitro tubulin polymerization assay; type: biochemical; details: 10 µM
Excerpt: (§2) In Vitro Tubulin Polymerization Assay.
as §2
In vitro microtubule polymerization assay.

[6] = system: PC-3 prostate tumor xenograft; assay: In vivo antitumor efficacy, PC-3 xenograft; parameters: species or system mouse; details: PC-3, 50 mg/kg i.p.; control 680 mm^3
Excerpt: PC-3 and A375 tumor xenograft studies.
In vivo antitumor activity [tumor growth inhibition (% T/C), tumor growth delay (T-C value), and tumor cell kill (total log cell kill)].

DU 145 [7] = details: read-out: IC50 ±SEM (nM), DU 145; Table 6
PPC-1 [8] = details: read-out: IC50 ±SEM (nM), PPC-1; Table 6
LNCaP [9] = details: read-out: IC50 ±SEM (nM), LNCaP; Table 6
[10] = summary over LNCaP, PC-3, DU-145, PPC-1
[11] = Mus musculus, B16-F1, read-out: IC50 ± SEM (nM), B16-F1
[12] = Homo sapiens, A-375, 96 h, read-out: IC50 ± SEM (nM), A375
[13] = Homo sapiens, PC-3, 96 h, read-out: IC50 ± SEM (nM), PC-3
[14] = Table 6, read-out: IC50 ±SEM (nM), B16-F1
[15] = Table 6, read-out: IC50 ±SEM (nM), A375
[16] = read-out: IC50 ±SEM (nM), PC-3, Table 6

Compound	IC50 (B16-F1; [11]) [nM]	IC50 (A375; [12]) [nM]	IC50 (PC-3; [13]) [nM]	IC50 (DU 145 [2]) [nM]	IC50 (LNCaP [3]) [nM]	IC50 (PPC-1 [4]) [nM]	IC50 ([1]; summary of Table 1) [nM]	further results
COc1cc(C(=O)c2cccc(-c3ccccc3)n2)cc(OC)c1OC [1c, (6-Phenylpyridin-2-yl)(3,4,5-trimethoxyphenyl)methanone]	–	–	–	–	–	–	–	Resistance factor (NCI/ADR-RES): 0.4; IC50 [1, 10]: 12 to 35 nM
COc1cc(C(=O)c2ccc(-c3ccccc3)o2)cc(OC)c1OC [1d, (5-Phenylfuran-2-yl)(3,4,5-trimethoxyphenyl)methanone]	151 ± 24	27 ± 8	21	35	23	20	–	IC50 [1, 10]: 12 to 35 nM
COc1cc(C(=O)c2cnc(-c3ccccc3)s2)cc(OC)c1OC [1e, (2-Phenylthiazol-5-yl)(3,4,5-trimethoxyphenyl)methanone]	12500 ± 5200	13600 ± 3800	> 10000	> 10000	> 10000	> 10000	> 10000	–
COc1cc(C(=O)N2CCC(c3ccccc3)CC2)cc(OC)c1OC [1g, (4-Phenylpiperidin-1-yl)(3,4,5-trimethoxyphenyl)methanone]	> 30000	> 30000	> 20000	> 20000	> 20000	> 20000	> 20000	–
COc1cc(C(=O)c2cc(-c3ccccc3)on2)cc(OC)c1OC [1i, (5-Phenylisoxazol-3-yl)(3,4,5-trimethoxyphenyl)methanone]	> 30000	> 30000	> 10000	> 10000	> 10000	> 10000	> 10000	–
COc1cc(C(=NC#N)c2csc(-c3ccccc3)n2)cc(OC)c1OC [2j, N-((2-phenylthiazol-4-yl)(3,4,5-trimethoxyphenyl)methylene)cyanamide]	60 ± 21	28 ± 12	27 ± 1	42 ± 2	23 ± 2	20 ± 1	–	IC50 (WM-164): 27 ± 13 nM; IC50 (OVCAR-8): 34 ± 2 nM; IC50 (NCI/ADR-RES; Homo sapiens, NCI/ADR-RES, P-gp over-expressed MDR cell line, Table 5A, read-out: IC50 (nM), NCI/ADR-RES): 14 ± 1 nM; Resistance factor (NCI/ADR-RES): 0.4; IC50 [5]: 20 to 60 nM; tubulin polymerization inhibited (Bovine brain tubulin; 20 min incubation, compared to vehicle): 64%
COc1cc(C(=O)c2csc(-c3ccc(O)cc3)n2)cc(OC)c1OC [2l, (2-(4-Hydroxyphenyl)thiazol-4-yl)(3,4,5-trimethoxyphenyl)methanone]	110	100	87	116	103	76	–	IC50 [5]: 76 to 116 nM; inhibited tubulin polymerization (Bovine brain tubulin; 15 min, Figure 28B): 55%; Tumor volume at day 21 [6]: 331 mm^3
COc1cc(C(=O)c2csc(-c3ccc(C)cc3)n2)cc(OC)c1OC [2m]	–	–	–	–	–	–	–	IC50 (B16-F1; [14]): 21 nM; IC50 (A375; [15]): 11 nM; IC50 (PC-3; [16]): 8.7 nM; IC50 (DU 145 [7]): 6.9 nM; IC50 (PPC-1 [8]): 6.2 nM
COc1cc(C(=O)c2csc(-c3cc(F)c(F)c(F)c3)n2)cc(OC)c1OC [2p]	–	–	–	–	–	–	–	IC50 (B16-F1; [14]): 16600 nM; IC50 (A375; [15]): 2200 nM; IC50 (PC-3; [16]): 2380 nM; IC50 (DU 145 [7]): 1900 nM; IC50 (LNCaP [9]): > 10000 nM; IC50 (PPC-1 [8]): 1080 nM
